Like-named read-outs stand apart in the source and are kept apart here.
Assays:
[1] = target: T1, M4 muscarinic receptor (Homo sapiens, UniProt P08173); test: Functional mobilization of intracellular calcium (FLIPR) in M4-CHO cells; assay type: cell-based
T1 construct: expressed in transfected cells; host or cells: CHO (M4-CHO)
T1 sequence (P08173 1-479): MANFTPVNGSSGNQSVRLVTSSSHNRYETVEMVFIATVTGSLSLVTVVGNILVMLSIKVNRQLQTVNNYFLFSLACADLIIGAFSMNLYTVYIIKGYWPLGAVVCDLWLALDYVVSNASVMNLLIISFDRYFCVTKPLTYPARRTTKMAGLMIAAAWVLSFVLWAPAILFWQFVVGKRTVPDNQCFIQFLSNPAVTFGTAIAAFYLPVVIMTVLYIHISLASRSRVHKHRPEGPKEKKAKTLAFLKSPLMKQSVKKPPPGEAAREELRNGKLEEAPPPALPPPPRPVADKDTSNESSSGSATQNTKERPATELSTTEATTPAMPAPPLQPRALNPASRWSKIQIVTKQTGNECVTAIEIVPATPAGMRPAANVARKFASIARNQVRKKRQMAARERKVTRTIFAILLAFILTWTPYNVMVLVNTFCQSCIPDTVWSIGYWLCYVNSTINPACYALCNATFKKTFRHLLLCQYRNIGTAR
Summary of the method: (§1)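 Steps: seed M1- or M4-CHO cells 18-24 hrs ahead; load calcium dye with 1 mM probenecid; add test compound (0.5% DMSO final), either alone for agonism or 15 min before EC80 carbachol for inhibition; record FLIPR fluorescence for 60 sec.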

[2] = target: T2, M1 muscarinic receptor (Homo sapiens, UniProt P11229); test: Functional mobilization of intracellular calcium (FLIPR) in M1-CHO cells; assay type: cell-based
T2 construct: expressed in transfected cells; host or cells: CHO (M1-CHO)
T2 sequence (P11229 1-460): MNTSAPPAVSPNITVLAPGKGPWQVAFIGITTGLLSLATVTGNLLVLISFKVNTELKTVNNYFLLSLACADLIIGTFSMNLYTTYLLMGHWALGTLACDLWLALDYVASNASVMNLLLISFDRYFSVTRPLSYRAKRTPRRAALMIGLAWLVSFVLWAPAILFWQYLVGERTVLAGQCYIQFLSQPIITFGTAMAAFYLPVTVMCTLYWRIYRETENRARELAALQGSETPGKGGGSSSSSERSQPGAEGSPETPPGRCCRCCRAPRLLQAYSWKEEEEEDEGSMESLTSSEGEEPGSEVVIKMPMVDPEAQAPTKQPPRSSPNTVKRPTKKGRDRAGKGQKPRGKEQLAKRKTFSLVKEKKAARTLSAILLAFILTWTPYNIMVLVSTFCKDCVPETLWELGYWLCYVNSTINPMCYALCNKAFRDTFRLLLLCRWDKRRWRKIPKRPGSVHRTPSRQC
Summary of the method: as §1

[3] = M4 receptor, calcium mobilization
[4] = M4 receptor, calcium mobilization, read-out: M4 Efficacy
[5] = M1 receptor, calcium mobilization
[6] = M1 receptor, calcium mobilization, read-out: M1 Efficacy
[7] = M4-CHO cells, calcium mobilization (FLIPR)
[8] = M4-CHO cells, calcium mobilization (FLIPR), read-out: M4 Efficacy
[9] = M1-CHO cells, calcium mobilization (FLIPR)
[10] = M1-CHO cells, calcium mobilization (FLIPR), read-out: M1 Efficacy
[11] = Table 4, 100% efficacy is the maximum response obtained with the Carbachol control
[12] = Table 4, M4 receptor, calcium mobilization (FLIPR)
[13] = Table 4, M1 receptor, calcium mobilization (FLIPR)
[14] = Table 4, modulating M4 receptor
[15] = Table 4, modulating M1 receptor

SMILES: COCCOC(=O)N1C2CCC1CC(N1CCC3(CC1)CN(C(=O)OC)c1ccc(F)cc13)C2 (centres unmarked) [compound 33]
- M4 Activity [1, 3]: xxx (activity was measured to be less than 0.1 μM)
- Emax [1, 4]: > 85%
- M1 Activity [2, 5]: xxx (activity was measured to be less than 0.1 μM)
- Emax [2, 6]: > 85%

SMILES: O=C(OCC(F)(F)F)N1C2CCC1CC(N1CCC3(CC1)COc1ccc(F)cc13)C2 (centres unmarked) [compound 124]
- M4 Activity [1, 3]: xx (activity was measured to be between 0.1 μM and 1.0 μM)
- Emax [1, 4]: < 65%
- M1 Activity [2, 5]: xxx (activity was measured to be less than 0.1 μM)
- Emax [2, 6]: < 65%

SMILES: COCCOC(=O)N1C2CCC1CC(N1CCC3(CC1)COc1ccc(F)cc13)C2 (centres unmarked) [compound 378]
- EC50 [1, 7]: > 1 µM
- Emax [1, 8]: 65 to 85%
- EC50 [2, 9]: 0.1 to 1 µM
- Emax [2, 10]: 65 to 85%

SMILES: CC(C)N(C(=O)N[C@H]1CC2(CCN(C3CC4CC[C@@H]3C4)CC2)c2ccccc21)C(C)C (some centres unmarked) [compound 960]
- Emax [1, 11]: 25 to 100%
- M4 Activity [1, 12]: xx (activity was measured to be between 2.0 μM and 5.0 μM)
- Emax [2, 11]: < 25%
- M1 Activity [2, 13]: x (activity was measured to be greater than 5.0 μM)

SMILES: CN(C)C(=O)CN1CC2(CCN(C[C@@H]3C[C@H]4C=CC3C4)CC2)c2cc(F)ccc21 [compound 815]
- Emax [1, 11]: 25 to 100%
- M4 Activity [1, 12]: xxx (activity was measured to be less than 2.0 μM)
- Emax [2, 11]: 25 to 100%
- M1 Activity [2, 13]: xx (activity was measured to be between 2.0 μM and 5.0 μM)

SMILES: CC(=O)N[C@H]1CC2(CCN(C3CCCC3C)CC2)c2ccccc21 (some centres unmarked) [compound 830]
- Emax [1, 11]: 25 to 100%
- M4 Activity [1, 12]: xx (activity was measured to be between 2.0 μM and 5.0 μM)
- Emax [2, 11]: 25 to 100%
- M1 Activity [2, 13]: x (activity was measured to be greater than 5.0 μM)

SMILES: CC(=O)N1CC2(CCN(C3CCN(c4cnc(C)c(C)n4)CC3)CC2)c2ccccc21 [compound 953]
- Emax [1, 11]: 25 to 100%
- M4 Activity [1, 12]: xxx (activity was measured to be less than 2.0 μM)
- Emax [2, 11]: 25 to 100%
- M1 Activity [2, 13]: xx (activity was measured to be between 2.0 μM and 5.0 μM)

SMILES: O=C(N[C@H]1CCC2(CCN(C3CC4CCC(C4)C3)CC2)c2ccccc21)C1CC1 (some centres unmarked) [compound 744]
- Emax [1, 11]: 25 to 100%
- M4 Activity [1, 14]: xxx (activity was measured to be less than 2.0 μM)
- Emax [2, 11]: 25 to 100%
- M1 Activity [2, 15]: xxx (activity was measured to be less than 2.0 μM)

SMILES: COCCOC(=O)N1CCC(N2CCC3(CC2)CN(C(C)=O)c2ccc(F)cc23)C1 (centres unmarked) [compound 1012]
- Emax [1, 11]: < 25%
- M4 Activity [1, 12]: x (activity was measured to be greater than 5.0 μM)
- Emax [2, 11]: < 25%
- M1 Activity [2, 13]: x (activity was measured to be greater than 5.0 μM)

SMILES: CC(=O)N[C@H]1CCC2(CCN(CC3CCC3)CC2)c2ccccc21 [compound 636]
- Emax [1, 11]: 25 to 100%
- M4 Activity [1, 14]: xxx (activity was measured to be less than 2.0 μM)
- Emax [2, 11]: 25 to 100%
- M1 Activity [2, 15]: xxx (activity was measured to be less than 2.0 μM)

SMILES: CCCC#CCOC(=O)N1CCC(N2CCC3(CC2)CN(C(C)=O)c2ccccc23)CC1 [compound 620]
- Emax [1, 11]: < 25%
- M4 Activity [1, 14]: x (activity was measured to be greater than 5.0 μM)
- Emax [2, 11]: 25 to 100%
- M1 Activity [2, 15]: x (activity was measured to be greater than 5.0 μM)

SMILES: CC(=O)N1CC2(CCN(C[C@@H]3CCN(C(=O)OCC(F)F)C3)CC2)c2ccccc21 [compound 1015]
- Emax [1, 11]: < 25%
- M4 Activity [1, 12]: xxx (activity was measured to be less than 2.0 μM)
- Emax [2, 11]: 25 to 100%
- M1 Activity [2, 13]: xx (activity was measured to be between 2.0 μM and 5.0 μM)

SMILES: Fc1ccc2c(c1)C1(CCN(C3CC4CCC(C4)C3)CC1)CN2 (centres unmarked) [compound 377]
- EC50 [1, 7]: 0.1 to 1 µM
- Emax [1, 8]: 65 to 85%
- EC50 [2, 9]: < 0.1 µM
- Emax [2, 10]: 65 to 85%

SMILES: CCOC(=O)N1CCC(N2CCC3(CC2)C(=O)Nc2ccccc23)CC1 [compound 191]
- M4 Activity [1, 3]: x (activity was measured to be greater than 1.0 μM)
- Emax [1, 4]: 65 to 85%
- M1 Activity [2, 5]: xxx (activity was measured to be less than 0.1 μM)
- Emax [2, 6]: 65 to 85%

Reference: patent US7786141B2 (Vertex Pharmaceuticals Incorporated, priority 2004, dated 2010)
